Experimental data as given in US20050271643A1, “Bacterial strains, compositions including same and probiotic use thereof” (priority 2003, published 2005).

System: B. licheniformis PA
Assay: Antibiogram by disc diffusion method
Format: cell-based, Bacillus licheniformis
Settings: strain B. licheniformis PA

| Compound | Sensitivity or resistance of the strain to the antibiotic (in words) |
| --- | --- |
| C[C@H]1[C@H](NC(=O)/C(=N\OC(C)(C)C(=O)O)c2csc(N)n2)C(=O)N1S(=O)(=O)O [Aztreonam] | resistant |
| CC1(C)S[C@@H]2[C@H](NC(=O)Cc3ccccc3)C(=O)N2[C@H]1C(=O)O [Benzylpenicillin] | resistant |
| Cc1onc(-c2ccccc2)c1C(=O)N[C@@H]1C(=O)N2[C@@H]1SC(C)(C)[C@@H]2C(=O)O [Oxacillin] | resistant |
| CC(C)(O/N=C(\C(=O)N[C@@H]1C(=O)N2C(C(=O)[O-])=C(C[n+]3ccccc3)CS[C@H]12)c1csc(N)n1)C(=O)O [Ceftazidim] | resistant |
| Polymyxin E | resistant |
